The structures appear in SMILES notation.

For one test, the target named is T1, Cannabinoid-1 receptor (CB1R) (Rattus norvegicus, UniProt P20272).
T1 construct: The tissue obtained from the brain of SD rats was homogenized; from tissue; host or cells: brain of SD rats (membrane pellet of the homogenate)
T1 sequence (P20272 whole entry): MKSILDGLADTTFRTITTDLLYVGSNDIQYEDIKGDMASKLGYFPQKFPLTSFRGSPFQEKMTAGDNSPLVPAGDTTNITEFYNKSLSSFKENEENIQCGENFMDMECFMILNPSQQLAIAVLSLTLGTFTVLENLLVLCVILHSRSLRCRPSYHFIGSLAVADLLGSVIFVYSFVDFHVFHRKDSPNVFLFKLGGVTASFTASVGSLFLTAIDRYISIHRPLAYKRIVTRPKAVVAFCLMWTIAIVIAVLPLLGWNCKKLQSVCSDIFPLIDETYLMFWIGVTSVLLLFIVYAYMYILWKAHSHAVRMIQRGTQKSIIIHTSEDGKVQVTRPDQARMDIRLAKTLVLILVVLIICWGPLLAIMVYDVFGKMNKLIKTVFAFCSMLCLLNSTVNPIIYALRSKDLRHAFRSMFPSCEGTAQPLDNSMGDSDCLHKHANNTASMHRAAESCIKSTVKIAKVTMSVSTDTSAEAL
In words: Cannabinoid-1 receptor (CB1R) binding affinity assay ([3H]CP-55940, rat CB-1 receptor binding protocol). As to conditions: IC50(nM), brain tissue of SD rats, [3H]CP-55940, 30° C. 60 min.
Compound `CCCCOC(C)(C)c1nnc(-c2nn(-c3ccc(Cl)cc3Cl)c(-c3ccc(Cl)cc3)c2C)o1` [Example 243, 2-(2-butoxypropan-2-yl)-5-(5-(4-chlorophenyl)-1-(2,4-dichlorophenyl)-4-methyl-1H-pyrazol-3-yl)-1,3,4-oxadiazole] had an IC50 of 9.78 nM. The same measure, in the same setting: the figure for `CCCCCOC(C)(C)c1nnc(-c2nn(-c3ccc(Cl)cc3Cl)c(-c3ccc(Cl)cc3)c2C)o1` [Example 244, 2-(5-(4-chlorophenyl)-1-(2,4-dichlorophenyl)-4-methyl-1H-pyrazol-3-yl)-5-(2-(pentyloxy)propan-2-yl)-1,3,4-oxadiazole] is 15.1 nM.

Regarding `Cc1c(-c2nnc(C(C)(C)OCc3cccc(Cl)c3)o2)nn(-c2ccc(Cl)cc2Cl)c1-c1ccc(Cl)cc1` [Example 249, 2-(2-(3-Chlorobenzyloxy)propan-2-yl)-5-(5-(4-chlorophenyl)-1-(2,4-dichlorophenyl)-4-methyl-1H-pyrazol-3-yl)-1,3,4-oxadiazole], the IC50 is 11.1 nM. For the compound `C=CCC1(c2nnc(-c3nn(-c4ccc(Cl)cc4Cl)c(-c4ccc(Br)cc4)c3CC)o2)CC1` [Example 259, 2-(1-allylcyclopropyl)-5-(5-(4-bromophenyl)-1-(2,4-dichlorophenyl)-4-ethyl-1H-pyrazol-3-yl)-1,3,4-oxadiazole], the IC50 was 9.57 nM.

Still in this test, the particulars now being: brain tissue of SD rats, [3H]CP-55940, 30° C. 60 min; read-out: IC50.
As to `COC(=O)NC(C)c1c(-c2nnc(C3(c4ccc(Cl)cc4)CC3)o2)nn(-c2ccc(Cl)cc2Cl)c1-c1ccc(Cl)cc1` (centres unmarked) [Example 231, Methyl 1-(5-(4-chlorophenyl)-3-(5-(1-(4-chlorophenyl)cyclopropyl)-1,3,4-oxadiazol-2-yl)-1-(2,4-dichlorophenyl)-1H-pyrazol-4-yl)ethylcarbamate], the IC50 was determined as 4.06 nM. `COC(=O)NCc1c(-c2nnc(C(C)(C)C)o2)nn(-c2ccc(Cl)cc2Cl)c1-c1ccc(Cl)cc1` [Example 232, Methyl (3-(5-tert-butyl-1,3,4-oxadiazol-2-yl)-5-(4-chlorophenyl)-1-(2,4-dichlorophenyl)-1H-pyrazol-4-yl)methylcarbamate]: the IC50 was found to be 15.6 nM. On the same count and under the same terms, next, `CC(C)(C)c1nnc(-c2nn(-c3ccc(Cl)cc3Cl)c(-c3ccc(Cl)cc3)c2COc2ccccc2)o1` [Example 233, 2-tert-butyl-5-(5-(4-chlorophenyl)-1-(2,4-dichlorophenyl)-4-(phenoxymethyl)-1H-pyrazol-3-yl)-1,3,4-oxadiazole]: 28.9 nM; `CC(C)(C)c1nnc(-c2nn(-c3ccc(Cl)cc3Cl)c(-c3ccc(Cl)cc3)c2COc2ccccn2)o1` [Example 234, 2-tert-butyl-5-(5-(4-chlorophenyl)-1-(2,4-dichlorophenyl)-4-((pyridin-2-yloxy)methyl)-1H-pyrazol-3-yl)-1,3,4-oxadiazole]: 24.4 nM; `CCCOC(C)(C)c1nnc(-c2nn(-c3ccc(Cl)cc3Cl)c(-c3ccc(Cl)cc3)c2C)o1` [Example 235, 2-(5-(4-chlorophenyl)-1-(2,4-dichlorophenyl)-4-methyl-1H-pyrazol-3-yl)-5-(2-propoxypropan-2-yl)-1,3,4-oxadiazole]: 42 nM.

Regarding `CCCCC(OCc1ccccc1)c1nnc(-c2nn(-c3ccc(Cl)cc3Cl)c(-c3ccc(Cl)cc3)c2C)o1` (centres unmarked) [Example 236, 2-(1-(benzyloxy)pentyl)-5-(5-(4-chlorophenyl)-1-(2,4-dichlorophenyl)-4-methyl-1H-pyrazol-3-yl)-1,3,4-oxadiazole], the IC50 was determined as 177 nM. For `C=CCOC(C)(C)c1nnc(-c2nn(-c3ccc(Cl)cc3Cl)c(-c3ccc(Cl)cc3)c2C)o1` [Example 237, 2-(2-(allyloxy)propan-2-yl)-5-(5-(4-chlorophenyl)-1-(2,4-dichlorophenyl)-4-methyl-1H-pyrazol-3-yl)-1,3,4-oxadiazole], the IC50 turned out to be 17.3 nM.

In the case of `C=CCOC(C)(C)c1nnc(-c2nn(-c3ccc(Cl)cc3Cl)c(-c3ccc(Br)cc3)c2CC)o1` [Example 238, 2-(2-(allyloxy)propan-2-yl)-5-(5-(4-bromophenyl)-1-(2,4-dichlorophenyl)-4-ethyl-1H-pyrazol-3-yl)-1,3,4-oxadiazole], the IC50 was determined as 18.4 nM. Still for that read-out and setting: the figure for `C=CCOC(C)(C)c1nnc(-c2nn(-c3ccc(Cl)cc3Cl)c(-c3ccc(Cl)cc3)c2CC)o1` [Example 239, 2-(2-(allyloxy)propan-2-yl)-5-(5-(4-chlorophenyl)-1-(2,4-dichlorophenyl)-4-ethyl-1H-pyrazol-3-yl)-1,3,4-oxadiazole] is 4.48 nM; for `CCc1c(-c2nnc(C(C)(C)OCCCO)o2)nn(-c2ccc(Cl)cc2Cl)c1-c1ccc(Br)cc1` [Example 240, 3-(2-(5-(5-(4-bromophenyl)-1-(2,4-dichlorophenyl)-4-ethyl-1H-pyrazol-3-yl)-1,3,4-oxadiazol-2-yl)propan-2-yloxy)propan-1-ol] it is 13.7 nM; for `CCCCC(O)c1nnc(-c2nn(-c3ccc(Cl)cc3Cl)c(-c3ccc(Cl)cc3)c2C)o1` (centres unmarked) [Example 241, 1-(5-(5-(4-chlorophenyl)-1-(2,4-dichlorophenyl)-4-methyl-1H-pyrazol-3-yl)-1,3,4-oxadiazol-2-yl)pentan-1-ol] it is 73.4 nM. On to `Cc1c(-c2nnc([C@H]3C[C@H]3C(=O)N3CCCCC3)o2)nn(-c2ccc(Cl)cc2Cl)c1-c1ccc(Cl)cc1` [Example 242, ((1R,2S)-2-(5-(5-(4-chlorophenyl)-1-(2,4-dichlorophenyl)-4-methyl-1H-pyrazol-3-yl)-1,3,4-oxadiazol-2-yl)cyclopropyl)(piperidin-1-yl)methanone], for which the IC50 was 67.3 nM. Still for that read-out and setting: the figure for `Cc1c(-c2nnc(C(C)(C)OCc3ccccc3)o2)nn(-c2ccc(Cl)cc2Cl)c1-c1ccc(Cl)cc1` [Example 245, 2-(2-(benzyloxy)propan-2-yl)-5-(5-(4-chlorophenyl)-1-(2,4-dichlorophenyl)-4-methyl-1H-pyrazol-3-yl)-1,3,4-oxadiazole] is 9.41 nM. For `Cc1c(-c2nnc(C(C)(C)OCc3ccccc3F)o2)nn(-c2ccc(Cl)cc2Cl)c1-c1ccc(Cl)cc1` [Example 248, 2-(5-(4-Chlorophenyl)-1-(2,4-dichlorophenyl)-4-methyl-1H-pyrazol-3-yl)-5-(2-(2-fluorobenzyloxy)propan-2-yl)-1,3,4-oxadiazole], the IC50 amounted to 25.1 nM. The same measure, in the same setting: next, `COC(c1ccccc1)(c1nnc(-c2nn(-c3ccc(Cl)cc3Cl)c(-c3ccc(Cl)cc3)c2C)o1)C(F)(F)F` (centres unmarked) [Example 251, 2-(5-(4-chlorophenyl)-1-(2,4-dichlorophenyl)-4-methyl-1H-pyrazol-3-yl)-5-(2,2,2-trifluoro-1-methoxy-1-phenylethyl)-1,3,4-oxadiazole]: 12.8 nM; `CC(=O)OCC(C)(C)c1nnc(-c2nn(-c3ccc(Cl)cc3Cl)c(-c3ccc(Cl)cc3)c2C)o1` [Example 252, 2-(5-(5-(4-chlorophenyl)-1-(2,4-dichlorophenyl)-4-methyl-1H-pyrazol-3-yl)-1,3,4-oxadiazol-2-yl)-2-methylpropyl acetate]: 54.5 nM. In the case of `Cc1c(-c2nnc(C(C)(C)CO)o2)nn(-c2ccc(Cl)cc2Cl)c1-c1ccc(Cl)cc1` [Example 253, 2-(5-(5-(4-chlorophenyl)-1-(2,4-dichlorophenyl)-4-methyl-1H-pyrazol-3-yl)-1,3,4-oxadiazol-2-yl)-2-methylpropan-1-ol], the IC50 was found to be 97.9 nM. The same measure, in the same setting: next, `Cc1c(-c2nnc(C(C)(C)COCc3ccccc3)o2)nn(-c2ccc(Cl)cc2Cl)c1-c1ccc(Cl)cc1` [Example 254, 2-(1-(Benzyloxy)-2-methylpropan-2-yl)-5-(5-(4-chlorophenyl)-1-(2,4-dichlorophenyl)-4-methyl-1H-pyrazol-3-yl)-1,3,4-oxadiazole]: 492 nM; `Cc1c(-c2nnc(C3(c4cccc(Cl)c4)CC3)o2)nn(-c2ccc(Cl)cc2Cl)c1-c1ccc(Cl)cc1` [Example 257, 2-(5-(4-chlorophenyl)-1-(2,4-dichlorophenyl)-4-methyl-1H-pyrazol-3-yl)-5-(1-(3-chlorophenyl)cyclopropyl)-1,3,4-oxadiazole]: 11.3 nM; `CCc1c(-c2nnc(C3(c4cccc(Cl)c4)CC3)o2)nn(-c2ccc(Cl)cc2Cl)c1-c1ccc(Cl)cc1` [Example 258, 2-(5-(4-chlorophenyl)-1-(2,4-dichlorophenyl)-4-ethyl-1H-pyrazol-3-yl)-5-(1-(3-chlorophenyl)cyclopropyl)-1,3,4-oxadiazole]: 8.72 nM. Same read-out and setting: next, `C#Cc1c(-c2nnc(C(C)(C)C)o2)nn(-c2ccc(Cl)cc2Cl)c1-c1ccc(Cl)cc1` [Example 260, 2-tert-butyl-5-(5-(4-chlorophenyl)-1-(2,4-dichlorophenyl)-4-ethynyl-1H-pyrazol-3-yl)-1,3,4-oxadiazole]: 10.6 nM; `CC#Cc1c(-c2nnc(C(C)(C)C)o2)nn(-c2ccc(Cl)cc2Cl)c1-c1ccc(Cl)cc1` [Example 261, 2-tert-butyl-5-(5-(4-chlorophenyl)-1-(2,4-dichlorophenyl)-4-(prop-1-ynyl)-1H-pyrazol-3-yl)-1,3,4-oxadiazole]: 15.4 nM; `CCc1c(-c2nnc(C3(C#N)CC3)o2)nn(-c2ccc(Cl)cc2Cl)c1-c1ccc(Br)cc1` [Example 266, 1-(5-(5-(4-bromophenyl)-1-(2,4-dichlorophenyl)-4-ethyl-1H-pyrazol-3-yl)-1,3,4-oxadiazol-2-yl)cyclopropanecarbonitrile]: 15.5 nM. For the compound `Cc1c(-c2nnc(C3(C#N)CC3)o2)nn(-c2ccc(Cl)cc2Cl)c1-c1ccc(Cl)cc1` [Example 267, 1-(5-(5-(4-chlorophenyl)-1-(2,4-dichlorophenyl)-4-methyl-1H-pyrazol-3-yl)-1,3,4-oxadiazol-2-yl)cyclopropanecarbonitrile], the IC50 was determined as 95.3 nM. Still for that read-out and setting: the figure for `CCc1c(-c2nnc(C3(C#N)CC3)o2)nn(-c2ccc(Cl)cc2Cl)c1-c1ccc(Cl)cc1` [Example 268, 1-(5-(5-(4-chlorophenyl)-1-(2,4-dichlorophenyl)-4-ethyl-1H-pyrazol-3-yl)-1,3,4-oxadiazol-2-yl)cyclopropanecarbonitrile] is 83.8 nM.

Broadly, the IC50 is the concentration that inhibits the measured activity by half.
